According to patent US5162316A, “Pyrimido[4,5-d]pyrimidine derivatives for use as bronchodilators” (Smith Kline & French Laboratories Limited, priority 1988, dated 1992):

How the values were obtained:
hindquarter blood flow = assay: Vasodilatation in vivo: hindquarter blood flow in anaesthetised rats; design: species or system rat (Wistar, male); settings: bolus i.v., 50 μmol/kg, rat
Protocol: Male Wistar rats (300 g) were anaesthetised with a sodium 5-ethyl-5-(1methylpropyl)-2-thiobarbiturate/sodium pentobarbitone mixture i.p. (62.5 and 22.5 mg/kg respectively). The trachea was cannulated and the rats breathed spontaneously air enriched with O2 (5 ml/min). Blood pressure was recorded from a carotid artery and a jugular vein was cannulated for the administration of compounds. The temperature of the animal was maintained at 37° C. by the use of an electric blanket. […] The perfusion circuit was primed with 5% bovine serum albumin dissolved in 0.9% sodium chloride solution, pH adjusted to 7.4. Initially the pump rate was set between 10 and 15 ml/min to match the hind quarter perfusion pressure to that of the systemic circulation. Once set, the pressure remained unaltered for the rest of the experiment. A change in the speed of the pump (equivalent to hindquarter blood flow) was used to assess the changes in hindquarter vascular resistance.

[1] = test system: U46619-induced bronchoconstriction; assay: Bronchodilatation in vivo: inhibition of U46619-induced bronchoconstriction in anaesthetised guinea-pigs (Konzett-Rossler); design: species or system guinea-pig (Dunkin Hartley, male); settings: for ED50: Cavia porcellus, iv, i.v. bolus, anaesthetised guinea-pig, range for the group of listed Examples, read-out: BD50 (dose of compound required to reduce the U46619-induced bronchoconstriction by 50%)
Protocol: Male guinea-pigs of the Dunkin Hartley strain (500-600g) were anaesthetised with Sagatal (pentobarbital sodium) (60 mg/kg). Airway resistance was measured using a modification of the classical Konzett-Rossler technique (J. Pharm. Methods, 13, 309- 315, 1985). […] The compound under test was administered by i.v. bolus injection, and the subsequent peak inhibition of bronchoconstriction recorded.
The dose of compound required to reduce the U46619-induced bronchoconstriction by 50% is given as the BD50. The compounds of Examples 1, 7, 8, 12, 13, 14, 18, 20, 21, 22 and 24 had BD50 values in the range 0.48-3.85 μmol/kg.

[2] = test system: ovalbumen-induced bronchoconstrictor response; assay: Anti-allergic activity: ovalbumen-induced bronchoconstriction in sensitised guinea-pigs; type: in vivo, guinea-pig (Duncan Hartley, male); settings: ovalbumen 1 mg/kg i.v., n=6
Protocol: Male Duncan Hartley guinea-pigs (250-300 g) were sensitised to ovalbumen by i.p. injection of 2 ml of 50mg.ml^-1 i.p. and 0.2 ml s.c. Three weeks later they were anaesthetised with 60mg.kg^-1 sodium pentabarbitone. The trachea was cannulated and the animal respired at a rate of 40 breaths per minute and at an initial tracheal inflation pressure of 16 mmHg. Tracheal inflation pressure was measured by a transducer connected to a side arm of the respiration circuit. The carotid artery was cannulated for the measurement of blood pressure and the signal was used to trigger an instantaneous rate meter. A jugular vein was cannulated for the administration of drug and allergen. After surgery the animals were allowed to stabilise and the drug was administered i.v. as a bolus. Following this, ovalbumen 1 mg.kg^-1 was injected i.v. as the antigen challenge either 2, 15 or 30 minutes following drug treatment and the peak bronchoconstrictor response recorded. For the control group ovalbumen only was given. One ovalbumen challenge per guinea-pig was used and n=6 for each time point. The percentage increase in tracheal inflation pressure was calculated. The following results indicating an anti-allergic activity were obtained.

[3] = target: T1, calmodulin insensitive cyclic GMP phosphodiesterase (Sus scrofa, UniProt A0A287B475); assay: Kinetic properties of the isolated PDE activity; type: biochemical, pig; settings: at 1 μM substrate
T1 construct: kept on ice until the pulmonary arteries or aortas could be dissected and excess fat removed; from tissue; host or cells: pig pulmonary arteries or aortas; soluble fraction purified over DEAE-Sepharose, calmodulin-agarose and cibacron blue-agarose
Protocol: Eight pig hearts/lungs were collected from the abattoir and kept on ice until the pulmonary arteries or aortas could be dissected and excess fat removed. 120 g of tissue was dissected. […] On the day of homogenisation, tissue was cooled with liquid nitrogen and broken into small pieces by striking with a hammer. […] Phenylmethanesulphonylfluoride (PMSF) was added to a final concentration of 50 μM just prior to homogenisation. The homogenate was then centrifuged for 20 minutes at 30,000 g. Supernatant was filtered firstly through glass wool and then a 0.45 μm filter. […] The column was washed with 150 mls of homogenisation buffer and PDE activities eluted with 150 ml of homogenisation buffer containing 100 mM sodium acetate.
Fractions 2 and 3 were pooled and BIS-TRIS, MgCl2, CaCl2 added to final concentrations of 50 mM, 7 mM and 5 mM respectively. PMSF, leupeptin, antipain and pepstatin A were also added at the concentrations described above for these components. The pH of this pooled sample was corrected to 6.9.
The first column in the tandem was a 5 ml calmodulin-agarose column (Sigma) and the second a 1.5 ml cibacron blue 3GA-agarose column (Sigma). Both columns were pre-equilibrated with 50 mM BIS-TRIS, 5 mM MgCl2, 5 mM CaCl2, 5 mM benzamidine, 2 mM dithiothreitol pH 6.9. Following application of the sample the columns were washed with 20 ml of equilibration buffer. […]

[4] = test system: [H][C@@]12COP(=O)(O)O[C@@]1([H])[C@@H](O)[C@H](n1cnc3c(=O)[nH]c(N)nc31)O2; assay: purified protein, by the assay type; settings: other: substrate of the isolated PDE activity

Molecule | ED50 [1] [µmol/kg] | further results
CCCOc1ccccc1-c1nc2nc(SC)ncc2c(=O)[nH]1 [Example 1, 7-Methylthio-4-oxo-2-(2-propoxyphenyl)-3,4-dihydropyrimido-[4.5-d]pyrimidin] | 0.48 to 3.85 | increase in hindquarter blood flow (hindquarter blood flow): 43.7%
CCCOc1ccccc1-c1nc2nc(N)ncc2c(=O)[nH]1 [Example 7, 7 Amino 4-oxo-2-(2-propoxyphenyl)-3,4-dihydropyrimido[4.5-d]pyrimidine] | 0.48 to 3.85 | –
CCCOc1ccccc1-c1nc2nc(NC)ncc2c(=O)[nH]1 [Example 8, 7-Methylamino-4-oxo-2-(2-propoxyphenyl)-3,4-dihydropyrimido[4.5-d]pyrimidine] | 0.48 to 3.85 | % Inhibition of Control Bronchoconstrictor Response 30 min after drug administration ([2]; dose 6.0 μmol/kg i.v.): 23%
CCCOc1ccccc1-c1nc2nc(NCC)ncc2c(=O)[nH]1 [Example 12, 7-Ethylamino-4-oxo-2-(2-propoxyphenyl)-3,4-dihydropyrimido[4,5-d]pyrimidine] | 0.48 to 3.85 | % Inhibition of Control Bronchoconstrictor Response 30 min after drug administration ([2]; dose 18.7 μmol/kg i.v.): 24%
CCCOc1ccccc1-c1nc2nc(NCCO)ncc2c(=O)[nH]1 [Example 13] | 0.48 to 3.85 | % Inhibition of Control Bronchoconstrictor Response 30 min after drug administration ([2]; dose 4.8 μmol/kg i.v.): 21%
CCCOc1ccccc1-c1nc2nc(CC)ncc2c(=O)[nH]1 [Example 14, 7-Ethyl-4-oxo-2-(2-propoxyphenyl)-3,4-dihydropyrimido[4,5-d]pyrimidine] | 0.48 to 3.85 | –
CCCOc1ccccc1-c1nc2nc(NC3CC3)ncc2c(=O)[nH]1 [Example 18, 7-Cyclopropylamino-4-oxo-2-(2-propoxyphenyl)-3,4-dihydropyrimido[4,5-d]pyrimidine] | 0.48 to 3.85 | % Inhibition of Control Bronchoconstrictor Response 30 min after drug administration ([2]; dose 22.6 μmol/kg i.v.): 44%
CCCNc1ncc2c(=O)[nH]c(-c3ccccc3OCCC)nc2n1 [Example 20, 7-Propylamino-4-oxo-2-(2-propoxyphenyl)-3,4-dihydropyrimido[4,5-d]pyrimidine] | 0.48 to 3.85 | –
CCCOc1ccccc1-c1nc2nc(NCCCO)ncc2c(=O)[nH]1 [Example 21, 7-(3-Hydroxypropylamino)-4-oxo-2-(2-propoxyphenyl)-3,4-dihydropyrimido[4.5 d]pyrimidine] | 0.48 to 3.85 | –
CCCOc1ccccc1-c1nc2nc(NCCOC)ncc2c(=O)[nH]1 [Example 22] | 0.48 to 3.85 | –
CCCOc1ccccc1-c1nc2nc(NCC(C)O)ncc2c(=O)[nH]1 (centres unmarked) [Example 24, 7-(2-Hydroxypropylamino)-4-oxo-2-(2-propoxyphenyl)-3,4-dihydropyrimido[4,5-d]pyrimidine] | 0.48 to 3.85 | % Inhibition of Control Bronchoconstrictor Response 30 min after drug administration ([2]; dose 6.5 μmol/kg i.v.): 24%
CCCCCC(O)C=CC1C2CC(CO2)C1CC=CCCCC(=O)O (centres unmarked) [Example U46619, 9,11-methaneoepoxy-PGH2, reference compound] | – | increase from basal airway resistance (steady state of bronchoconstriction) ([1]; U46619 infused i.v. at 2.5 nmol/min): approximately 120%
Nc1nc2c(ncn2[C@@H]2O[C@@H]3COP(=O)(O)O[C@H]3[C@H]2O)c(=O)[nH]1 [cGMP] | – | Ratio of cGMP/cAMP hydrolysis [3]: 30
calmodulin insensitive cyclic GMP phosphodiesterase (Sus scrofa) | – | Km [4]: 1.3 µM
